According to PubChem BioAssay (NCI):
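Test compounds were applied to cells in 96-well plates for 48 hours at 5 doses. GI50 = concentration required for 50% inhibition of growth. TGI denotes the concentration required for complete inhibition of growth.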

Legend:
Assay in all cases: growth of human tumour cells (NCI), 48 h
SNB-19 CNS = tested on: SNB-19 CNS
OVCAR-3 ovarian = tested on: OVCAR-3 ovarian
KM12 colon = tested on: KM12 colon
A498 renal = tested on: A498 renal
HCT-15 colon = tested on: HCT-15 colon
SF-268 CNS = tested on: SF-268 CNS
UO-31 renal = tested on: UO-31 renal
A549 NSCLC = tested on: A549 NSCLC
HOP-62 NSCLC = tested on: HOP-62 NSCLC
SK-MEL-28 melanoma = tested on: SK-MEL-28 melanoma
RXF 393 renal = tested on: RXF 393 renal
NCI/ADR-RES ovarian = tested on: NCI/ADR-RES ovarian
MDA-MB-435 = tested on: MDA-MB-435
MALME-3M melanoma = tested on: MALME-3M melanoma
SN12C renal = tested on: SN12C renal
SK-OV-3 ovarian = tested on: SK-OV-3 ovarian
TK-10 renal = tested on: TK-10 renal
SF-539 CNS = tested on: SF-539 CNS
PC-3 prostate = tested on: PC-3 prostate
NCI-H226 lung = tested on: NCI-H226 lung
M14 melanoma = tested on: M14 melanoma
OVCAR-8 ovarian = tested on: OVCAR-8 ovarian
SK-MEL-5 melanoma = tested on: SK-MEL-5 melanoma
SF-295 CNS = tested on: SF-295 CNS
SW-620 colon = tested on: SW-620 colon
HCT-116 colon = tested on: HCT-116 colon
IGROV1 ovarian = tested on: IGROV1 ovarian
HOP-92 NSCLC = tested on: HOP-92 NSCLC
LOX IMVI melanoma = tested on: LOX IMVI melanoma
NCI-H460 lung = tested on: NCI-H460 lung
OVCAR-4 ovarian = tested on: OVCAR-4 ovarian
SNB-75 CNS = tested on: SNB-75 CNS
NCI-H522 lung = tested on: NCI-H522 lung
MCF7 breast = tested on: MCF7 breast
MDA-MB-231 breast = tested on: MDA-MB-231 breast
HT29 colon = tested on: HT29 colon
UACC-257 melanoma = tested on: UACC-257 melanoma
SK-MEL-2 melanoma = tested on: SK-MEL-2 melanoma
OVCAR-5 ovarian = tested on: OVCAR-5 ovarian
DU-145 prostate = tested on: DU-145 prostate
786-0 renal = tested on: 786-0 renal
CAKI-1 renal = tested on: CAKI-1 renal
HCC-2998 colon = tested on: HCC-2998 colon
U251 CNS = tested on: U251 CNS
BT-549 breast = tested on: BT-549 breast
UACC-62 melanoma = tested on: UACC-62 melanoma
T-47D breast = tested on: T-47D breast
HL-60(TB) leukemia = tested on: HL-60(TB) leukemia
ACHN renal = tested on: ACHN renal
COLO 205 colon = tested on: COLO 205 colon
NCI-H23 lung = tested on: NCI-H23 lung

FC(F)(F)Oc1cccc(-c2cc(NCCCCCCNc3cc(-c4cccc(OC(F)(F)F)c4)nc4ccc(N5CCCC5)cc34)c3cc(N4CCCC4)ccc3n2)c1
GI50 (SNB-19 CNS): 1.55 µM | TGI (SNB-19 CNS): 2.98 µM | GI50 (OVCAR-3 ovarian): 1.83 µM | TGI (OVCAR-3 ovarian): 3.24 µM | GI50 (KM12 colon): 1.74 µM | TGI (KM12 colon): 3.27 µM | GI50 (A498 renal): 2.05 µM | TGI (A498 renal): 3.57 µM | GI50 (HCT-15 colon): 1.84 µM | TGI (HCT-15 colon): 3.69 µM | GI50 (SF-268 CNS): 1.94 µM | TGI (SF-268 CNS): 3.9 µM | GI50 (UO-31 renal): 1.54 µM | TGI (UO-31 renal): 2.88 µM | GI50 (A549 NSCLC): 2.05 µM | TGI (A549 NSCLC): 4.49 µM | GI50 (HOP-62 NSCLC): 2.04 µM | TGI (HOP-62 NSCLC): 4.44 µM | GI50 (SK-MEL-28 melanoma): 1.83 µM | TGI (SK-MEL-28 melanoma): 3.3 µM | GI50 (RXF 393 renal): 1.65 µM | TGI (RXF 393 renal): 3.22 µM | GI50 (NCI/ADR-RES ovarian): 2.07 µM | TGI (NCI/ADR-RES ovarian): 4.5 µM | GI50 (MDA-MB-435): 1.82 µM | TGI (MDA-MB-435): 3.27 µM | GI50 (MALME-3M melanoma): 1.68 µM | TGI (MALME-3M melanoma): 3.1 µM | GI50 (SN12C renal): 1.64 µM | TGI (SN12C renal): 3.06 µM | GI50 (SK-OV-3 ovarian): 1.78 µM | TGI (SK-OV-3 ovarian): 3.36 µM | GI50 (TK-10 renal): 1.78 µM | TGI (TK-10 renal): 3.37 µM | GI50 (SF-539 CNS): 1.85 µM | TGI (SF-539 CNS): 3.33 µM | GI50 (PC-3 prostate): 2.02 µM | TGI (PC-3 prostate): 4.42 µM | GI50 (NCI-H226 lung): 1.86 µM | TGI (NCI-H226 lung): 3.69 µM | GI50 (M14 melanoma): 1.84 µM | TGI (M14 melanoma): 3.65 µM | GI50 (OVCAR-8 ovarian): 2.13 µM | TGI (OVCAR-8 ovarian): 5.08 µM | GI50 (SK-MEL-5 melanoma): 1.77 µM | TGI (SK-MEL-5 melanoma): 3.22 µM | GI50 (SF-295 CNS): 1.69 µM | TGI (SF-295 CNS): 3.11 µM | GI50 (SW-620 colon): 1.81 µM | TGI (SW-620 colon): 3.35 µM | GI50 (HCT-116 colon): 2.21 µM | TGI (HCT-116 colon): 5.54 µM | GI50 (IGROV1 ovarian): 1.52 µM | TGI (IGROV1 ovarian): 3.12 µM | GI50 (HOP-92 NSCLC): 1.54 µM | TGI (HOP-92 NSCLC): 3.18 µM | GI50 (LOX IMVI melanoma): 1.85 µM | TGI (LOX IMVI melanoma): 3.54 µM | GI50 (NCI-H460 lung): 1.84 µM | TGI (NCI-H460 lung): 3.4 µM | GI50 (OVCAR-4 ovarian): 1.7 µM | TGI (OVCAR-4 ovarian): 3.19 µM | GI50 (SNB-75 CNS): 1.66 µM | TGI (SNB-75 CNS): 3.16 µM | GI50 (NCI-H522 lung): 2.05 µM | TGI (NCI-H522 lung): 4.76 µM | GI50 (MCF7 breast): 1.73 µM | TGI (MCF7 breast): 3.49 µM | GI50 (MDA-MB-231 breast): 1.72 µM | TGI (MDA-MB-231 breast): 3.16 µM | GI50 (HT29 colon): 2.15 µM | TGI (HT29 colon): 4.35 µM | GI50 (UACC-257 melanoma): 1.89 µM | TGI (UACC-257 melanoma): 3.88 µM | GI50 (SK-MEL-2 melanoma): 1.96 µM | TGI (SK-MEL-2 melanoma): 3.63 µM | GI50 (OVCAR-5 ovarian): 1.76 µM | TGI (OVCAR-5 ovarian): 3.18 µM | GI50 (DU-145 prostate): 2.46 µM | TGI (DU-145 prostate): 5.76 µM | GI50 (786-0 renal): 1.8 µM | TGI (786-0 renal): 3.49 µM | GI50 (CAKI-1 renal): 1.65 µM | TGI (CAKI-1 renal): 3.01 µM | GI50 (HCC-2998 colon): 1.74 µM | TGI (HCC-2998 colon): 3.27 µM | GI50 (U251 CNS): 2.11 µM | TGI (U251 CNS): 4.62 µM | GI50 (BT-549 breast): 1.78 µM | TGI (BT-549 breast): 3.72 µM | GI50 (UACC-62 melanoma): 1.77 µM | TGI (UACC-62 melanoma): 3.16 µM

O=C(NCc1cccc(CNC(=O)Nc2nc3ccccc3[nH]2)c1)Nc1nc2ccccc2[nH]1
GI50 (A498 renal): 2.07 µM | TGI (A498 renal): 5.11 µM | GI50 (HCT-15 colon): > 100 µM | TGI (HCT-15 colon): > 100 µM | GI50 (T-47D breast): 3.33 µM | TGI (T-47D breast): > 100 µM | GI50 (HOP-62 NSCLC): 1.95 µM | TGI (HOP-62 NSCLC): 4.92 µM | GI50 (NCI/ADR-RES ovarian): > 100 µM | TGI (NCI/ADR-RES ovarian): > 100 µM | GI50 (HL-60(TB) leukemia): > 100 µM | TGI (HL-60(TB) leukemia): > 100 µM | GI50 (HOP-92 NSCLC): 1.25 µM | TGI (HOP-92 NSCLC): 3.26 µM | GI50 (SNB-75 CNS): 1.58 µM | TGI (SNB-75 CNS): 4.18 µM | GI50 (SK-MEL-2 melanoma): 2.36 µM | TGI (SK-MEL-2 melanoma): 7.1 µM | GI50 (CAKI-1 renal): > 100 µM | TGI (CAKI-1 renal): > 100 µM | GI50 (ACHN renal): 4.16 µM | TGI (ACHN renal): > 100 µM

C#CC[C@@H]1C[C@]2(C)[C@H]3CC[C@@H]4[C@H]5C(C(=C)C)CC[C@]5(C(=O)NCCN(CCN)CCN)CC[C@@]4(C)[C@]3(C)CC[C@H]2C(C)(C)[C@H]1OC(C)=O (some centres undefined)
GI50 (NCI-H226 lung): 2.06 µM | TGI (NCI-H226 lung): 4.69 µM | GI50 (OVCAR-4 ovarian): 2.35 µM | TGI (OVCAR-4 ovarian): 5.32 µM

COc1cc(/C=C2\C[C@H]3[C@@H]4CCc5cc(OCCN6CCCC6)ccc5[C@H]4CC[C@]3(C)C2=O)cc(OC)c1OC
TGI (KM12 colon): 3.36 µM | TGI (HCT-15 colon): 3.77 µM | TGI (SK-OV-3 ovarian): 8.3 µM | TGI (COLO 205 colon): 2.81 µM | TGI (SK-MEL-5 melanoma): 2.86 µM | TGI (NCI-H23 lung): 7.4 µM | TGI (UACC-257 melanoma): 4.89 µM | TGI (SK-MEL-2 melanoma): 5.34 µM | TGI (DU-145 prostate): 3.56 µM | TGI (BT-549 breast): > 100 µM | TGI (UACC-62 melanoma): 7.22 µM
